Reference: patent publication US10689526B2, “N-halamines compounds as multifunctional additives” (BOARD OF REGENTS, THE UNIVERSITY OF TEXAS SYSTEM, priority 2005, dated 2020)

Assays:
[1] = DSC and TGA thermal analysis of Cl-BTMP; type: physicochemical
[2] = tested on: Escherichia coli (E. coli, ATCC 15597, gram-negative); assay: Antimicrobial activity of CADMH in aqueous suspension; type: cell-based; settings: for contact time for a total kill of 10^8-10^9 CFU/mL of E. coli: 500 ppm of active chlorine content; for % of kill of E. coli / log reduction of E. coli: 1000 ppm of active chlorine content
Protocol: (§1) In other examples to evaluate antimicrobial activities of CADMH, Escherichia coli (e.g., E. coli, ATCC® 15597™, gram-negative) and Staphylococcus aureus subsp. aureus (e.g., S. aureus, ATCC® 6538™, gram-positive) were used as model microorganisms to challenge the antimicrobial functions of the samples. In the microbial studies, the bacteria were grown in broth solutions (e.g., LB broth for E. coli; Tryptic Soy broth for S. aureus) overnight at 37° C. Cells were harvested in a centrifuge, washed twice with phosphate buffered saline (e.g., PBS, OmniPur®, NaCl, 8.0 g/L; KCl, 0.20 g/L; Na2HPO4, 1.42 g/L; KH2PO4, 1.36 g/L; pH 7.4), re-suspended in PBS, and then diluted to concentrations of 10^8-9 CFU/mL. A known amount of CADMH (particle size: 60-80 mesh) was dispersed in 10 mL of sterilized distilled water. The mixture was vortexed and then sonicated for 10 minutes. Then, 100 μL of the bacteria suspension were added into the CADMH-containing suspension and the resultant mixture was vortexed for 60 seconds. After a certain period of contact time under constant shaking, the mixture was poured into 90 mL of 0.03 wt % sterilized sodium thiosulfate aqueous solution to quench the active chlorine and stop the antimicrobial test. […] The resulting solutions were vortexed for 2 minutes and then serially diluted, and each dilution was placed onto LB agar (for E. coli) or Tryptic soy agar (for S. aureus). The same procedure was also applied to the correspondent unchlorinated samples as controls. Bacterial colonies on the plates were counted after incubation at 37° C. for 24 hours.

[3] = tested on: Staphylococcus aureus subsp. aureus (S. aureus, ATCC 6538, gram-positive); assay: as above; type: cell-based; settings: for contact time for a total kill of 10^8-10^9 CFU/mL of S. aureus: 500 ppm of active chlorine content
Protocol: as §1

[4] = tested on: E. coli; assay: Antimicrobial activity of CADMH-containing PS or HDPE films (sandwich test); type: cell-based
Protocol: Preparation of CADMH-containing polymeric materials. PS and HDPE were used as the model polymers to preliminarily evaluate the antimicrobial activities of CADMH as additives. In the preparation of CADMH-containing PS films, a certain amount of CADMH was dissolved in 5% PS solutions in THF. The solution was poured onto glass slides. The glass slides were put in a fume hood for 2 days at room temperature to evaporate most of the solvent, and then further dried in a vacuum oven at 30° C. for 3 days to obtain polymer films (100±10 μm of thickness). To prepare CADMH-containing HDPE films, a predetermined amount of CADMH was added into 5% HDPE solutions in hot o-xylene under constant stirring. After evaporation of the solvent, polymer films having a thickness of about 70±5 μm were obtained by hot pressing at 140° C. for 15 seconds. The chlorine contents of the CADMH-containing PS and HDPE films were determined by iodimetric titration, as described above. Pure PS or HDPE films without the presence of CADMH were prepared using the same procedures as controls.
Antimicrobial activity of CADMH-containing polymers. In the antimicrobial tests of CADMH-containing PS or HDPE films, 10 μL of E. coli suspensions (e.g., 10^8-10^9 CFU/mL) were placed onto the surface of a film (e.g., 4×4 cm). The film was then covered with another identical film. A 100 grams weight was added onto the whole “sandwich” to ensure sufficient contact. At different contact time, the “sandwich” was transferred into 10 mL of 0.03 wt % sodium thiosulfate aqueous solution to quench the active chlorine of the samples. The mixture was sonicated for 20 minutes and vortexed for 60 seconds to remove the adherent bacteria into the solution. The resultant solution was serially diluted, and each dilution was placed onto LB agar plates. The same procedure was also applied to the pure PS or HDPE films as controls. Bacterial colonies were counted after 24 hours of incubation at 37° C.

[5] = Solubility in water; type: physicochemical
[6] = Storage stability, active chlorine content by iodimetric titration; type: physicochemical; settings: PS and HDPE films, storage for 4 months at 23±2° C. and 70±5% RH
Protocol: After storage for about 4 months under ambient conditions (e.g., 23±2° C., 70±5% RH), all the samples retained more than 96% of their original chlorine contents. The antimicrobial functions were tested monthly during the storage period, and after 4 months of storage, the minimum contact time of the samples for a total kill of 10^8-10^9 CFU/mL of E. coli or S. aureus was unchanged.

[7] = Thermal properties by DSC; type: physicochemical
Protocol: Thermal properties of the samples were examined with DSC, and the representative DSC curves are shown in FIG. 6 using DCSDMH and Cl-DCSDMH as examples. […] After chlorination, the N—H bond in DCSDMH is transformed into N—Cl group, and because of the lack of hydrogen bonding, the melting point of Cl-DCSDMH decreases to 52.4° C.

[8] = tested on: S. epidermidis; assay: Anti-biofilm functions of N-halamine-containing samples (recovered bacteria, SEM); type: cell-based; settings: polyurethane samples containing 4% additive, three days of immersion in S. epidermidis
Protocol: Preparation of N-halamine-containing materials. In one example, a predetermined amount of Cl-ODDMH (e.g., 1%, 2% and 4% to PU) was added into 5% polyurethane (Noveon) solutions in THF under constant stirring to from a clear solution. The solution was cast onto Teflon sheets in a fume hood at room temperature for 2 days to produce thin films (e.g., 170±10 μm of thickness). The films were further dried under vacuum at 50° C. for 3 days. Cl-ODDMH-containing PU sheets (e.g., 4×4 cm) or discs (e.g., 0.5 cm of diameter) were cut sterilely from the films. Pure PU sheets or discs were prepared under the same conditions as controls.
Anti-biofilm functions. The samples were immersed individually in sealed tubes containing 5 mL of S. epidermidis broth suspension (10^6-10^7 CFU/mL of bacteria) in a shaking water bath at 37° C. and 30 RPM. […] The solution was serially diluted, and 100 μL of each dilution was plated onto agar plates. The same procedure was applied to the untreated samples as controls. Bacterial colonies were counted after incubation at 37° C. for between about 24 and 48 hours. SEM studies were used to confirm the biofilm controlling function. PU discs with or without the presence of Cl-ODDMH were immersed in 5 mL 10^6-10^7 CFU/mL of S. epidermidis broth suspensions in a water bath at 37° C. and 30 RPM. […]

[9] = 1000 ppm active chlorine content
[10] = 1000 ppm of active chlorine content, 5 minutes of contact

CC1(C)CC(OC(=O)CCCCCCCCC(=O)OC2CC(C)(C)N(Cl)C(C)(C)C2)CC(C)(C)N1Cl [Cl-BTMP, bis(N-chloro-2,2,6,6-tetramethyl-4-piperidinyl) sebacate]
thermally stable up to [1]: up to 200 °C

CCCCCCCCCCCCCCCCCCCCCCN1C(=O)N(Cl)C(C)(C)C1=O [Cl-DCSDMH]
contact time for a total kill of 10^8-10^9 CFU/mL of E. coli [2]: 60 minutes | contact time for a total kill of 10^8-10^9 CFU/mL of S. aureus [3]: 60 minutes | contact time for a total kill of 10^8-10^9 CFU/mL of E. coli ([4]; 1% additive in HDPE films): 4 hours | contact time for a total kill of 10^8-10^9 CFU/mL of E. coli ([4]; 1% additive in PS films): 4 hours | antimicrobial activities of the films after storage ([4]; PS and HDPE films, storage for 4 months at 23±2° C. and 70±5% RH): no changes | solubility in water (in words) [5]: insoluble | active chlorine contents of the films after storage [6]: no changes | exothermic peak in the DSC curve (decomposition of the N—Cl bond) [7]: 176.0 °C

CCN1C(=O)N(Cl)C(C)(C)C1=O [Cl-EDMH]
contact time for a total kill of 10^8-10^9 CFU/mL of E. coli [2]: less than 5 minutes | contact time for total kill of E. coli [2, 9]: less than 5 minutes | contact time for a total kill of 10^8-10^9 CFU/mL of S. aureus [3]: less than 5 minutes | contact time for total kill of S. aureus [3, 9]: less than 5 minutes | solubility in water ([5]; 23° C.): ca. 3 g/L

CCCCCCN1C(=O)N(Cl)C(C)(C)C1=O [Cl-HDMH]
contact time for a total kill of 10^8-10^9 CFU/mL of E. coli [2]: 30 minutes | % of kill of E. coli ([2]; 5 minutes of contact): 99% | log reduction of E. coli ([2]; 5 minutes of contact): 2 log | % of kill of E. coli ([2]; contact time 15 minutes): 99.999% | log reduction of E. coli ([2]; contact time 15 minutes): 5 log | contact time for a total kill of 10^8-10^9 CFU/mL of S. aureus [3]: 30 minutes | % of kill of S. aureus [3, 10]: 100% | log reduction of S. aureus [3, 10]: 7 log | log reduction of S. aureus ([3]; 1000 ppm of active chlorine content, contact time 15 minutes): 8 log | solubility in water (in words) [5]: insoluble

CCCCCCCCCCCCCCCCCCN1C(=O)N(Cl)C(C)(C)C1=O [Cl-ODDMH]
bacteria recovered from the samples [8]: less than 50 CFU/cm^2
